Laboratory results reported in patent US20220249484A1, “METHODS FOR PREDICTING RESPONSIVENESS OF CANCER TO FERROPTOSIS-INDUCING THERAPIES” (Memorial Sloan Kettering Cancer Center, priority 2019, published 2022).

Legend:
HCT116 cells [1] = test: Verteporfin and cystine starvation-induced ferroptosis; format: cell-based, human; settings: verteporfin 0.5 μM
Procedure: (§1) To further confirm this conclusion, a pharmacological analysis was performed. As a transcriptional coactivator, YAP regulates the expression of multiple target genes through its interaction with the TEAD family of transcriptional factors. Verteporfin (VP), a pharmacological agent that can inhibit the interaction of YAP with the TEAD family members was used to determine the effect of Merlin on ferroptosis. […] YAP^S127A-expressing cells were also treated with verteporfin (0.5 μM) after 24 h of cystine starvation in shMerlin HCT116 or 211H cells.

211H cells = test: as above; format: cell-based, human; settings: verteporfin 0.5 μM
Procedure: as §1

HCT116 cells [2] = test: Cell death inhibitors in sparse HCT116 cells under cystine starvation or RSL3; format: cell-based, human; settings: 5×10^4 cells/well; for inhibition of RSL3-induced cell death: 5 μM RSL3 24 h, with cell death inhibitors; for inhibition of cystine starvation-induced cell death: cystine-free media 30 h, Fer-1 1 μM, DFO 50 μg/mL, Z-VAD-FMK 20 μM, GSK'872 10 μM
Procedure: (§2) Measurement of cell death, cell viability and lipid peroxidation. Cell death was analyzed by propidium iodide (Invitrogen, Waltham, Mass., USA) or SYTOX Green (Invitrogen) staining followed by microscopy or flow cytometry. For 3D spheroids, cell viability was determined using the CellTiter-Glo® 3D Cell Viability Assay (Promega, Madison, Wis., USA) according to the manufacturer's instructions. Viability was calculated by normalizing ATP levels to spheroids treated with normal full media. To analyze lipid peroxidation, cells were stained with 5 μM BODIPY-C11 (Invitrogen) for 30 minutes at 37° C. followed by flow cytometric analysis.
To confirm that sparse HCT116 cells were dying from ferroptosis but not another cell death modality, various cell death inhibitors were tested: ferrostatin-1 (Fer-1) and DFO, which inhibit ferroptosis, Z-VAD-FMK, a pan-caspase inhibitor, and GSK'872, a selective RIPK3 inhibitor that blocks necroptosis. HCT116 cells were seeded at a density of 5×10^4 cells/well and grown for 24 hours. Cells were washed in PBS and cultured in cystine-free media with the indicated treatments for 30 h. Fer-1: Ferrostatin-1, 1 μM; DFO: iron chelator, 50 μg/mL; Z-VAD-FMK: pan-caspase inhibitor, 20 μM; GSK'872: RIPK3 inhibitor, 10 μM. HCT116 cells were seeded at a density of 5×10^4 cells/well and grown for 24 hours, then treated with 5 μM RSL3 and the indicated cell death inhibitors for 24 hours before measuring cell death. These experiments confirmed that cells underwent ferroptosis, instead of other modes of cell death, under these conditions (FIGS. 6C-6D). Similar cell density-dependent ferroptosis was previously observed by Seiler et al., Cell Metab. 8: 237-248 (2008) and Schneider et al., Neoplasia 12:254-263 (2010). In Seiler et al., mouse embryonic fibroblasts (MEFs) harboring two floxed GPX4 alleles survived and grew when seeded at high density, but upon passage at lower density they died rapidly. In Schneider et al., GPX4-deficient MEFs formed 3D tumor spheroids as well as wild-type MEFs by an unknown mechanism.

[3] = system: HCT116-derived xenograft tumors; test: shLats1/2 HCT116 subcutaneous xenograft treated with IKE; format: in vivo, nude mice
Procedure: For shLats1/2 s.c. tumor models, female athymic nu/nu mice aged 6 to 8 weeks were injected in the right flank with 2×10^6 shNT HCT116 cells or shLats1/2 HCT116 cells. Tumors were measured with calipers every day. When tumors reached a mean volume of 90 mm^3, mice were randomized into four groups and treated with vehicle (65% D5W (5% dextrose in water), 5% Tween-80, 30% PEG-400) or 50 mg/kg IKE (65% D5W (5% dextrose in water), 5% Tween-80, 30% PEG-400) via IP injection once a day. At the end of the study, mice were euthanized with CO2 and tumors were taken for measurement of weight.
To determine whether Lats1/2, the kinases that directly phosphorylate and inactivate YAP, can have similar effects in vivo as Merlin, subcutaneous xenograft tumors were formed from HCT116 cells harboring hairpins targeting Lats1/2. In particular, HCT116 cells containing non-targeting hairpins or hairpins targeting both Lats1 and 2 were injected subcutaneously into nude mice (n=6 per group). Tumors were grown to a volume of 90 mm^3, at which point they were injected […] with 50 mg/kg imidazole ketone erastin (IKE) once a day for 12 days. Tumor volume was measured daily by caliper. Images of resected tumors and their masses were also quantified (FIGS. 19B-19C). Imidazole ketone erastin (IKE) is an erastin analog that is amenable for in vivo use because of the increased solubility and stability.

HCT116 cells [4] = test: Ferroptosis in HCT116 cells expressing PAK-CAAX; format: cell-based, human
MEFs = test: Ferroptosis and lipid ROS in MEFs; format: cell-based, mouse; settings: Ferrostatin-1 2 μM; cystine starvation, erastin or RSL3
Procedure: as §2
Merlin-regulated ferroptosis in cell density dependent manner was also observed in MEFs, which are not of epithelial origin. Cell death of MEFs with different cell density induced by cystine starvation for 12 h was measured by PI staining (FIG. 15A), and flow cytometry (FIG. 15B). The effect of cystine starvation on lipid ROS production in MEFs cells with different cell density (6 h treatment) is also shown in FIG. 15B. […] As shown in FIGS. 15A-15D, increased cell density mitigated both cell death and lipid ROS generation induced by cystine starvation, erastin and RSL3 in MEFs.
MEFs also regulated the activity of YAP at high density in a Merlin-dependent manner. MEFs seeded at increasing density were probed for YAP localization by Immunofluorescence (FIG. 15E). The effect of Merlin was assessed by infecting MEFs with shMerlin lentivirus and selected with puromycin. […] As shown in FIGS. 15E-15F, with increasing cell confluence, there was an increase of YAP nuclear exclusion in MEFs, which was attenuated by Merlin knockdown.

[5] = system: tumor spheroids of HCT116 cells; test: Erastin-induced cell death in HCT116 tumor spheroids; format: cell-based, human; settings: 15 μM erastin with 2 μM Fer-1, 30 h
Procedure: Generation of three-dimensional spheroids. Spheroids were generated by plating tumor cells at 10^3/well into U-bottom Ultra Low Adherence (ULA) 96-well plates (Corning, Tewksbury, Mass., USA). Optimal three-dimensional structures were achieved by centrifugation at 600 g for 5 min followed by addition of 2.5% Matrigel (Corning). Plates were incubated for 72 h at 37° C., 5% CO2, 95% humidity for formation of a single spheroid of cells. Spheroids were then treated with erastin in fresh medium containing Matrigel for the indicated time.
as §2, with “To analyze lipid peroxidation, cells were stained with 5 μM BODIPY-C11 (Invitrogen) for 30 minutes at 37° C. followed by flow cytometric analysis.” left out
Tumor spheroids generated from shEcad, shMerlin and shLats1/2 cells were treated with 15 μM erastin with or without 2 μM Fer-1 for 30 h, and dead cells were stained green by SYTOX Green. Cell viability within the tumor spheroids was measured by determining ATP levels. […]

HCT116 cells [6] = test: Ferroptosis in confluent HCT116 cells expressing shEcad, shMerlin or shLats1/2; format: cell-based, human; settings: cystine starvation or RSL3 plus
Procedure: as §2
The involvement of the Hippo signaling in the regulation of ferroptosis by cell-cell contact was also assessed. Cells depleted of Ecad, Merlin, or Lats were generated using shRNA technology. HCT116 cells were infected by lentiviruses expressing shRNA sequences targeting Ecad (shEcad), Merlin (shMerlin), or Lats1/2 (shLats1/2), as indicated. Knockdown efficiency was confirmed by Western blot (FIG. 2B). […] Cell death was measured at 30 h using SYTOX Green staining followed by flow cytometry. Lipid ROS was measured at 24 hours using C11-BODIPY staining coupled with flow cytometry. […] Cell death was measured at 18 h and lipid ROS was measured at 14 h (FIG. 11A).

MSTO-211H cells = test: Ferroptosis in confluent MSTO-211H cells (shMerlin, shNcad); format: cell-based, human
Procedure: as §2
To confirm the ferroptosis-regulating role of Merlin in mesothelioma cells, the effect of Merlin knockdown on ferroptosis sensitivity was assessed. MSTO-211H cells were infected with lentiviruses expressing shMerlin. RNAi knockdown efficiency was confirmed by Western blot (FIG. 3F). Then, shNT or shMerlin MSTO-211H cells were cultured to high confluence, at which point they were treated with media containing or lacking cystine, with or without Fer-1 for 24 h. Cell death was measured by SYTOX Green staining followed by flow cytometry (FIG. 3G). To measure lipid reactive species, shNT or shMerlin MSTO-211H cells were treated for 18 h, at which point they were stained with 2 μM C11-BODIPY for lipid ROS measurement (FIG. 311). Confluent MSTO-211H cells expressing shNT or shMerlin were also treated with 1 μM RSL3 with or without […] Fer-1. Cell death (left, 24 h after treatment) and lipid ROS production (right, 16 h) were measured (FIG. 13B).
Therefore, the cell density dependence of ferroptosis is not limited to epithelial cells expressing Ecad. […] To assess the expression of N-cadherin in MSTO-211H mesothelioma cells, the cells were cultivated at different cell densities, and the levels of Ncad, p-YAP and total YAP were analyzed by Western blot. […] Therefore, the potential role of Ncad in ferroptosis was tested. MSTO-211H cells were infected with lentiviruses expressing Ncad shRNA (shNcad) and selected with puromycin.

211H mesothelioma cells = test: Sorafenib-induced ferroptosis; format: cell-based, human; settings: 10 μM sorafenib
Procedure: (§3) The effect of sorafenib on cell density-dependent ferroptosis was determined. First, HCT116 cells were seeded at a density of 0.5×10^5 cells/3.5 cm2 well (sparse) or 4×10^5 cells/3.5 cm2 well (confluent) and grown for 24 h. Cells were then treated with DMSO, 10 μM sorafenib, or 10 μM sorafenib and 2 μM Fer-1 as indicated. […] Second, ΔEcad or the parental HCT116 cells were seeded at 4×10^5 cells/3.5 cm2 well and grown for 24 h. Cells were then treated with 10 μM sorafenib and 2 μM Fer-1 as indicated. Third, HCT116 shNT or shMerlin cells, MSTO-211H shNT or shMerlin cells, HCT116 cells expressing YAP^S127A or the parental cells, MSTO-211H cells expressing YAP^S127A or the parental cells, and HCT116 shNT or shLats1/2 cells were seeded at high density and treated with 10 μM sorafenib and 2 μM Fer-1 as indicated.

HCT116 cells [7] = test: Sorafenib-induced ferroptosis; format: cell-based, human; settings: 10 μM sorafenib
Procedure: as §3

malignant mesothelioma = settings: clinical trials; cited from earlier work

In the case of Verteporfin, the “effect of Merlin knockdown and YAP^S127A overexpression on cystine starvation-induced ferroptosis” value (HCT116 cells [1]; high density) is reported as “ablated the effect of Merlin knockdown and YAP^S127A overexpression”, the “sensitivity of shMerlin cells to cystine starvation-induced ferroptosis” value (HCT116 cells [1]; 24 h cystine starvation) is reported as “reduced cells sensitivity to ferroptosis” and the “effect of Merlin knockdown and YAP^S127A overexpression on cystine starvation-induced ferroptosis” value (211H cells; high density) is reported as “ablated the effect of Merlin knockdown and YAP^S127A overexpression”. The “sensitivity of shMerlin cells to cystine starvation-induced ferroptosis” value (211H cells; 24 h cystine starvation) was “reduced cells sensitivity to ferroptosis”.

For CC(=O)N(O)CCCCCNC(=O)CCC(=O)N(O)CCCCCNC(=O)CCC(=O)N(O)CCCCCN [DFO], the “inhibition of RSL3-induced cell death” value (HCT116 cells [2]) was “inhibited” and the “inhibition of cystine starvation-induced cell death” value (HCT116 cells [2]) was “inhibited”.

For CC(C)Oc1ccc(C(=O)Cn2ccnc2)cc1-n1c(CN2CCN(C(=O)COc3ccc(Cl)cc3)CC2)nc2ccccc2c1=O [IKE, imidazole ketone erastin], the “mass of resected xenograft tumors” value ([3]; Lats1/2 depleted HCT116 tumors, 50 mg/kg IKE once a day) was “reduced” and the “xenograft tumor growth (volume)” value ([3]; shLats1/2 HCT116 tumors, 50 mg/kg IKE once a day for 12 days) was “grew slowly or receded”.

In the case of CCOC(=O)c1ccc(NC2CCCCC2)c(N)c1 [Fer-1, Ferrostatin-1], the “inhibition of RSL3-induced ferroptosis in PAK-CAAX cells by Fer-1” value (HCT116 cells [4]) is reported as “inhibited”, the “inhibition of cystine deprivation-induced ferroptosis in PAK-CAAX cells by Fer-1” value (HCT116 cells [4]) is reported as “inhibited” and the “block of cell death and lipid ROS in confluent Merlin RNAi MEFs” value (MEFs) is reported as “blocked”. For the same compound, the “block of erastin-induced cell death in spheroids by Fer-1” value [5] was “blocked cell death”, the “inhibition of RSL3-induced cell death” value (HCT116 cells [2]) was “inhibited” and the “inhibition of cystine starvation-induced cell death” value (HCT116 cells [2]) was “inhibited”. For the same compound, the “block of cell death by Fer-1, confluent knockdown cells” value (HCT116 cells [6]) was “blocked cell death”, the “block of RSL3-induced ferroptosis and lipid ROS in shMerlin cells by Fer-1” value (MSTO-211H cells; 1 μM RSL3 with 204 Fer-1) was “blocked” and the “block of lipid ROS production in cystine-deprived shMerlin cells by Fer-1” value (MSTO-211H cells; high confluence, 18 h) was “blocked”. The “block of cystine deprivation-induced ferroptosis in shMerlin cells by Fer-1” value (MSTO-211H cells; high confluence, cystine-free 24 h) was “blocked”.

For CNC(=O)c1cc(Oc2ccc(NC(=O)Nc3ccc(Cl)c(C(F)(F)F)c3)cc2)ccn1 [sorafenib], the “sorafenib-induced ferroptosis at high cell density after inhibition of Merlin or activation of YAP” value (211H mesothelioma cells) was “sensitize these cells to sorafenib-induced ferroptosis at high cell density”, the “sorafenib-induced ferroptosis at high cell density after loss of Ecad, Lats1/2, inhibition of Merlin or activation of YAP” value (HCT116 cells [7]) was “sensitize these cells to sorafenib-induced ferroptosis at high cell density” and the “sorafenib-induced ferroptosis, sparse versus confluent cells” value (HCT116 cells [7]) was “could induce cell density-dependent ferroptosis”. The “clinical outcome in malignant mesothelioma” value (malignant mesothelioma) was “can stabilize, but not necessarily treat mesothelioma”.
